Entries after “also recorded” stand apart in the source; their conditions may differ.
Columns and labels:
monkeys = details: cited from earlier work
larval zebrafish = test: Social preference in larval zebrafish; type: in vivo, zebrafish (Danio rerio); details: 100 µM immersion 1 h
Procedure: The social preference test for young zebrafish has been described elsewhere. In brief, experiments were performed in custom-built arenas; see Fig. 5, consisting of laser-cut 5 mm high white acrylic walls placed on transparent flooring with transparent acrylic partitions. The dimensions of each arena were 40 × 32 mm, and the chambers containing stimulus fish was 15 × 15 mm. The areas in front of these stimulus compartments were designated Social Area (where the stimulus was placed) or Non-Social Area (where the stimulus was not placed). The water depth was 5 mm, and water parameters matched the ones housing water parameters. Nine arenas were placed adjacent to each other on an infrared (IR) back-light diffusing both IR and white light (Noldus, Wageningen, the Netherlands), with a digital monochrome high resolution GigE camera overhead (Noldus, Wageningen, the Netherlands), and surrounded by an opaque enclosure.
A 10 mM stock solution was prepared by dissolving L-368,899 in H2O (Milli-Q water purification system), and subsequently stored at −20 °C. The stock solution was diluted to a working concentration of 100 µM by addition of water adjusted to the same parameters kept in the fish facility. Larvae were immersed in 100 µM L-368,899 solution (treated fish) or in water matching housing conditions (control fish) for 1 hour prior to testing. Focal larvae were then transferred to test arenas and filmed for 15 minutes, with no stimulus present (acclimation period; AC). Following this, one stimulus larva was placed in a randomly selected stimulus chamber of each arena, and focal larvae were filmed for another 15 minutes (social cue period; SC). A total of 137 vehicle-treated fish and 109 antagonist-treated fish were tested, and after using the exclusion criteria described below, 87 vehicle-treated fish and 77 antagonist-treated fish were included in the statistical analyses.
Larval results were analysed using a social preference index (SPI). SPI was calculated by subtracting the time a focal larva spent in the Non-Social Area from the time it spent in the Social Area, and then dividing the result by the total time the larva was tracked in the entire arena. […] SPI was calculated for each focal larva for the AC period and the SC period separately. […] All data was analysed using paired T-tests to investigate change within the control and treated groups, and Student’s T-tests to investigate difference between the groups for each phase.

adult zebrafish = test: Social preference in adult zebrafish; type: in vivo, zebrafish (Danio rerio)
Procedure: Adult and larval behavioural testing was performed between 9 AM and 4 PM. All fish were fed prior to and after experiments, and larvae were also given an additional feed at midday. Adult fish were of a 1:1 sex ratio, and focal fish and stimulus fish were size-matched. Adult fish and shoals were filmed using a web camera and Debut Video Capture Software (NCH Software, Greenwood Village, USA), and videos were analysed using EthoVision version 11 (Noldus, Wageningen, the Netherlands).
The experimental setup comprised one large test tank (60 cm × 30 cm), and two smaller side tanks (15 cm × 30 cm) positioned at the short ends of the test tank; see Fig. 4. The test tank (the arena) was divided into five different zones used when tracking the video recordings, see Fig. 4. The zone closest to the stimuli shoal was always designated Zone 1, and the zone furthest away from the shoal was always designated Zone 5. […] All tanks were visually isolated from each other during the acclimation period of 10 minutes.
A stimulus shoal of eight zebrafish, with a 1:1 sex ratio, was placed in one of the side tanks, while the opposite side tank remained empty. Focal fish and shoal fish were selected to be of similar size in order not to evoke adverse reactions, such as anxiety or aggression. The experiments were thoroughly randomized between treatment groups for time of day and shoal used. The stimulus fish had been habituated to the room and aquarium for 24 hours prior to the start of the experiments. Two shoals were used as stimulus shoals throughout the experiment. The side for the stimulus shoal was alternated in order to avoid any potential place preference of the focal fish. The reasons for using two shoals for all focal fish were to decrease the behavioural variation in focal fish that may be caused by inter-shoal variations, to decrease the stress in stimulus fish caused by netting and transferring them between tanks that may be transferred to the focal fish, and to limit the number of fish used according to the 3 R principles. There were no statistical significant effects of day of testing (One-way ANOVA; p > 0.7), time of testing (One-way ANOVA; p > 0.5), or the identity of the stimulus shoal (shoal 1 versus shoal 2; un-paired t-test; p > 0.1) on the total time the focal fish spent in Zone 1 (closest to the shoal) during the 15 minutes test time.
At 24 hours prior to the experiment, zebrafish were weighed, placed into separate holding tanks, and brought to the experimental room in order to acclimatise. The following day fish were intraperitoneally injected with vehicle Ringer’s solution (13 females and 8 males), or the antagonist (11 females and 10 males). The Ringer’s solution recipe was retrieved from the Zebrafish Information Network (ZFIN, University of Oregon, Eugene, OR, USA).
Intraperitoneal injections were conducted using a 1 mL U-100 BD MicroFine™ Insulin Syringe (Becton Dickinson France S.A.S., France). Post injection, animals were placed into their holding tanks for one hour to recover. […] Following this, focal fish were individually placed in the middle of the test tank and left to freely move around for ten minutes (acclimation period) before visual partitions were removed, which initiated the start of the test period (15 minutes).
All data for the social preference and novel tank diving experiments in adults were extracted as processed means per minute from EthoVision. For the shoaling experiments, raw data was exported from EthoVision, and then post-processed by an in-house script written in Python 3.4, in order to compute IFD, NND, and FND as described elsewhere. For timelines, repeated measures analysis of variance (RM-ANOVA) was used. For pairwise comparisons of total means between groups, Student’s T-tests were used.

Cc1ccccc1N1CCN(S(=O)(=O)C[C@]23CC[C@H](C[C@@H]2NC(=O)[C@@H](N)CCS(C)(=O)=O)C3(C)C)CC1 [L-368,899]
Behavioural effects one hour after treatment (monkeys): robust behavioural effects | Social preference in larvae, in words (larval zebrafish): decreased social preference | Increase in SPI from acclimation to social cue (larval zebrafish; t(76) = 0.177, p = 0.86, vehicle larvae significantly increased, p = 0.039): not present | SPI during the social cue period vs vehicle (larval zebrafish; t(162) = 1,98, p = 0.049): significantly lower SPI | Social Preference Index (AC) (larval zebrafish; 3-week-old larvae, acclimation phase, mean ± SEM, n = 77, vehicle 0.06 ± 0.04): 0.00 ± 0.05 | Locomotion (AC): Velocity (larval zebrafish; 3-week-old larvae, acclimation phase, mean ± SEM, n = 77, vehicle 0.28 ± 0.01): 0.30 ± 0.02 cm/s | Locomotion (AC): Distance (larval zebrafish; 3-week-old larvae, acclimation phase, mean ± SEM, n = 77, vehicle 249 ± 12): 265 ± 14 cm/min | Social Preference Index (SC) (larval zebrafish; 3-week-old larvae, social cue phase, mean ± SEM, n = 77, vehicle 0.18 ± 0.05): 0.01 ± 0.06 | Social preference in adults, in words (adult zebrafish; 100 µg per gram fish i.p.): decreased social preference; also recorded: inhibits social preference | Social preference in adults, in words (adult zebrafish; 100 µg per gram fish i.p., listed as antagonist): did not completely abolish social preference | Time in all the other zones vs vehicle (adult zebrafish; 15 min test, 100 µg per gram fish i.p.): significantly more time | Time in Zone 1 (closest to the shoal) vs vehicle (adult zebrafish; 15 min test, 100 µg per gram fish i.p., t(39) = 3.339, p = 0.0016): significantly less time | Distance from shoal vs vehicle (adult zebrafish; 15 min test, F(1,39) = 10.79, p = 0.0022): significantly further away | Social behaviour: Distance to shoal (adult zebrafish; adult social preference, 100 µg per gram fish i.p., 1 h before test, mean ± SEM, vehicle 11.0 ± 1.8): 19.7 ± 1.9 cm | Social behaviour: Social zone duration (adult zebrafish; adult social preference, 100 µg per gram fish i.p., 1 h before test, mean ± SEM, vehicle 45.9 ± 2.3): 34.5 ± 2.4 s/min | Locomotion: Distance (adult zebrafish; adult social preference, 100 µg per gram fish i.p., 1 h before test, mean ± SEM, vehicle 528 ± 19, p = 0.25): 496 ± 20 cm/min | Activity parameters vs vehicle, social preference test (adult zebrafish; average distance p = 0.25, average velocity p = 0.32): no significant differences | Approach to shoal, acclimation vs test period (adult zebrafish; paired T-test, average distance to shoal, antagonist t(19) = 5.983, p = 9e-6): responded to the visual stimuli of a conspecific shoal | Social preference, pilot experiment, 5 μg per gram fish (adult zebrafish; pilot, 5 μg L-368,899 per gram fish): did not affect social preference | Social preference, pilot experiment, 50 μg per gram fish (adult zebrafish; pilot, 50 μg L-368,899 per gram fish): did not affect social preference
